biological target: xanthine oxidase (Bos taurus, UniProt P80457); experiment: in vitro xanthine oxidase inhibition (hypoxanthine substrate, absorbance at 292, pH 7.4 buffer; Baker et al procedure); type: biochemical; details: 1 min, test compound at 2 × 10^-6 (footnote 1), hypoxanthine 6 × 10^-5 M solution, 1 minute
Experimental: The procedure used employed the principals described in J. Pharm.
A reference cuvette is filled with 0.05M pH 7.4 buffer. For the control, mix quickly in a cuvette 2 ml. hypoxanthine solution (6 × 10^-^5 M), 2 ml.

Sequence of xanthine oxidase (P80457 whole entry): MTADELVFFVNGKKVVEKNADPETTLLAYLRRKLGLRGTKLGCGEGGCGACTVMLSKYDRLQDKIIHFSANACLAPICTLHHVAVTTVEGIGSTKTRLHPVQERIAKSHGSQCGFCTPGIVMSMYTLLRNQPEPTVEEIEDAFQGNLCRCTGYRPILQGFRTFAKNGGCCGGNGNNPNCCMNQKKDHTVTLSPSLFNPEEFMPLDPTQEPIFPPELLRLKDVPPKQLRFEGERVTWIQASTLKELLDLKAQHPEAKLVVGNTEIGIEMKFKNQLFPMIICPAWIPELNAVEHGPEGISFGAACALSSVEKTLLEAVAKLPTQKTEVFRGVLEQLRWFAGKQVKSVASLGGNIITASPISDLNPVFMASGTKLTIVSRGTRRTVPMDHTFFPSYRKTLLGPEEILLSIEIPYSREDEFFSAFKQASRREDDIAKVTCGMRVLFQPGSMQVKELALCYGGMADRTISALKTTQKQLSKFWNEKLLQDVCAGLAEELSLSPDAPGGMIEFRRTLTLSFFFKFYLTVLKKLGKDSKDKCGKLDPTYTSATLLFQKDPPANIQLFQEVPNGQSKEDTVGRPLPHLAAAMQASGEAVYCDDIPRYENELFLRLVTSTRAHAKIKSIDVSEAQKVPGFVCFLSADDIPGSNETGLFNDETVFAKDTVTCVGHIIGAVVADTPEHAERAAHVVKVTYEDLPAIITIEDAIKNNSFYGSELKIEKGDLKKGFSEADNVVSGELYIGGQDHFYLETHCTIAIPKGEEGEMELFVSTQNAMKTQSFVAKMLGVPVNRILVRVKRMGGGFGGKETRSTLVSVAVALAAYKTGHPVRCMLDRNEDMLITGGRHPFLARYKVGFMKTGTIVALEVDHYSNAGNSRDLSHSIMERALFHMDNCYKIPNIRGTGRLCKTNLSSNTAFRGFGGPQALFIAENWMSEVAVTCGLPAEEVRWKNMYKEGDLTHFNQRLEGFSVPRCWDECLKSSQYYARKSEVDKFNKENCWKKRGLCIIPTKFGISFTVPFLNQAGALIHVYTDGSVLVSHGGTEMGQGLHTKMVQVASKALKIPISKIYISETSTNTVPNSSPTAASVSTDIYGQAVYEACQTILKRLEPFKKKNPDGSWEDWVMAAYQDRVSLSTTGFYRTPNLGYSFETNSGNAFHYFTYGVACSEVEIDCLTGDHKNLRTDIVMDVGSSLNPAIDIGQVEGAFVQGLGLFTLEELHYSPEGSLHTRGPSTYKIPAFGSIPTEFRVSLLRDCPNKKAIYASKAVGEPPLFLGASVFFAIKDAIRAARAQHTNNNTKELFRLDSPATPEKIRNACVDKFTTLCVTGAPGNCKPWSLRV

inhibition at 2 µM [%]	Structure (SMILES)
52	CN(C)S(=O)(=O)c1cc2c(cc1Cl)N=C(CCl)NS2(=O)=O [3-Chloromethyl-6-chloro-7-N,N-dimethylsulfamoyl-1,2,4-benzothiadiazine-1,1-dioxide]

same assay, conditions: test compound 2 × 10^-5 M, hypoxanthine 6 × 10^-5 M solution, 1 minute

inhibition at 20 µM [%]	Structure (SMILES)
6	C=CCN(CC=C)S(=O)(=O)c1cc2c(cc1Cl)NC(C(Cl)(Cl)Cl)NS2(=O)=O (centres unmarked)
18	CCN(CC)S(=O)(=O)c1cc2c(cc1Cl)N=C(C(Cl)Cl)NS2(=O)=O
12	CCCN(CCC)S(=O)(=O)c1cc2c(cc1Cl)N=C(C(Cl)Cl)NS2(=O)=O
45	NS(=O)(=O)c1cc2c(cc1Cl)NC(C(Cl)(Cl)Cl)NS2(=O)=O (centres unmarked)
24	NS(=O)(=O)c1cc2c(cc1Cl)N=C(CCl)NS2(=O)=O
14	CCCN(CCC)S(=O)(=O)c1cc2c(cc1Cl)N=C(C(Cl)(Cl)Cl)NS2(=O)=O
16	CNS(=O)(=O)c1cc2c(cc1Cl)NC(C(Cl)(Cl)Cl)NS2(=O)=O (centres unmarked)
53	C=CCN(CC=C)S(=O)(=O)c1cc2c(cc1Cl)N=C(CCl)NS2(=O)=O
63	CCNS(=O)(=O)c1cc2c(cc1Cl)NC(C(Cl)(Cl)Cl)NS2(=O)=O (centres unmarked)
5	CN(C)S(=O)(=O)c1cc2c(cc1Cl)N=C(C(Cl)(Cl)Cl)NS2(=O)=O
6	CCCN(CCC)S(=O)(=O)c1cc2c(cc1Cl)NC(C(Cl)(Cl)Cl)NS2(=O)=O (centres unmarked) [3-Trichloromethyl-6-chloro-7-N,N-di-n-propylsulfamoyl-3,4-dihydro-1,2,4-benzothiadiazine-1,1-dioxide]
11	CN(C)S(=O)(=O)c1cc2c(cc1Cl)N=C(C(Cl)Cl)NS2(=O)=O
75	CCN(CC)S(=O)(=O)c1cc2c(cc1Cl)N=C(CCl)NS2(=O)=O
3	CCN(CC)S(=O)(=O)c1cc2c(cc1Cl)N=C(C(Cl)(Cl)Cl)NS2(=O)=O
21	CCCN(CCC)S(=O)(=O)c1cc2c(c(Cl)c1Cl)N=C(C(Cl)Cl)NS2(=O)=O
26	CCCN(CCC)S(=O)(=O)c1cc2c(c(Cl)c1Cl)N=C(C(Cl)(Cl)Cl)NS2(=O)=O
6	CCNS(=O)(=O)c1cc2c(cc1Cl)N=C(C(Cl)Cl)NS2(=O)=O
69	CCCN(CCC)S(=O)(=O)c1cc2c(cc1Cl)N=C(CCl)NS2(=O)=O
13	CN(C)S(=O)(=O)c1cc2c(cc1Cl)N=C(C(C)(Cl)Cl)NS2(=O)=O
30	CCCN(CCC)S(=O)(=O)c1cc2c(cc1Cl)N=C(CBr)NS2(=O)=O
33	CCCN(CCC)S(=O)(=O)c1cc2c(c(Cl)c1Cl)N=C(CCl)NS2(=O)=O
78	CNS(=O)(=O)c1cc2c(cc1Cl)N=C(CCl)NS2(=O)=O

From patent US3969518A, “Inhibiting xanthine oxidase with 3-haloalkyl substituted benzothiadiazine-1,1-dioxides” (Merck & Co., Inc., priority 1972, dated 1976)
